# Experimental data: patent US9902728B2, “Pyrrolo and pyrazolopyrimidines as ubiquitin-specific protease 7 inhibitors” (Forma Therapeutics, Inc., priority 2014, dated 2018)
# Where two headings read alike, the source gives them in different places.
# Target: T1, USP7 (Homo sapiens, UniProt Q93009)
# T1 construct: USP7, construct USP7 (208-1102) 6*His, Viva Biotech; 6xHis (C); purchased Viva Biotech
# Assay: USP7 Assay A (Ubitquin-Rhodamine 110 Assay)
# Format: biochemical
# Conditions: read-out: USP7_IC50
# Summary of the method: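 Ub-Rh110 cleavage in 20 mM Tris-HCl pH 8.0 with 1 mM GSH, 0.03% BGG, 0.01% Triton X-100; compound preincubated with enzyme 30 min before substrate.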
# [1] = USP7 assay A and B (table does not say which assay per compound)
# [2] = USP7 activity in USP7 assay A and B (table does not say which assay per compound)
# T1 sequence (Q93009 208-1102): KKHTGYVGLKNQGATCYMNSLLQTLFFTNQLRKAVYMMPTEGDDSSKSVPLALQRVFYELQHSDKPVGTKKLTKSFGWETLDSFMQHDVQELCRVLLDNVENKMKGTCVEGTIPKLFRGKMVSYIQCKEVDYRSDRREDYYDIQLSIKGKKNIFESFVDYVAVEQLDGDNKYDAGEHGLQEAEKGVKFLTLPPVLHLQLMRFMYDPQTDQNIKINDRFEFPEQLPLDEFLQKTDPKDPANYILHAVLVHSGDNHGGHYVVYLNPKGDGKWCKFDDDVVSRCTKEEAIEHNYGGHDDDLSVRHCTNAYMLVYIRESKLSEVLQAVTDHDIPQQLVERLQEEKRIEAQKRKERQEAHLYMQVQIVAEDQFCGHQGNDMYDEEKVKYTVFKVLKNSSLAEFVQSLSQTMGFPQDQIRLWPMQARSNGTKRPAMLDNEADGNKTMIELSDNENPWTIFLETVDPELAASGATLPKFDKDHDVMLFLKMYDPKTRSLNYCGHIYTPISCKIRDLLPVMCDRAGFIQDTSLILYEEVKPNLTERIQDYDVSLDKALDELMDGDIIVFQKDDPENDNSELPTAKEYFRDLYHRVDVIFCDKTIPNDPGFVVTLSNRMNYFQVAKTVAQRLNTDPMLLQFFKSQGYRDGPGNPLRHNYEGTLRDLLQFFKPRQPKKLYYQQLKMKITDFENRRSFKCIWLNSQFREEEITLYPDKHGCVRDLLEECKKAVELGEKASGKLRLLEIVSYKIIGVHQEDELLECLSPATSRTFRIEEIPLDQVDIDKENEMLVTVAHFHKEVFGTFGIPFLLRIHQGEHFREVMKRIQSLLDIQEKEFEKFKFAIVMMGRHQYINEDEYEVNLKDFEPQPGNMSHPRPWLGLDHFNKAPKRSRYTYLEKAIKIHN
Compound,IC50 [1] [nM],IC50 [2] [nM]
NC(=O)c1ccc(C(=O)N2CCC(O)(Cn3cnc4c(cnn4-c4ccccc4)c3=O)CC2)cc1 [Compound I-179],200 to 1000,–
CC1(C(=O)N2CCC(O)(Cn3cnc4c(cnn4-c4ccc(-n5cc(C(F)(F)F)cn5)cc4)c3=O)CC2)CCC1 [Compound I-1717],–,< 200
CN(C)c1ccc(-n2ncc3c(=O)n(CC4(O)CCN(C(=O)c5ccc(F)cc5)CC4)cnc32)cc1 [Compound I-707],200 to 1000,–
O=C(c1ccc(C(F)(F)F)nc1)N1CCC(O)(Cn2cnc3c(cnn3-c3ccc(F)cc3)c2=O)CC1 [Compound I-422],> 10000,–
"C[S+]([O-])c1ccc(-n2ncc3c(=O)n(CC4(O)CCN(C(=O)c5ccc(F)cc5)CC4)cnc32)cc1 (single isomer, unassigned) [Compound I-996, 5-((1-(4-fluorobenzoyl)-4-hydroxypiperidin-4-yl)methyl)-1-(4-(methylsulfinyl)phenyl)-1H-pyrazolo[3,4-d]pyrimidin-4(5H)-one]",1000 to 10000,–
"O=C(c1ccc(NC2CC2)cc1)N1CCC(O)(Cn2cnc3c(cnn3-c3ccccc3)c2=O)CC1 [Compound I-23, 5-((1-(4-(Cyclopropylamino)benzoyl)-4-hydroxypiperidin-4-yl)methyl)-1-phenyl-1,5-dihydro-4H-pyrazolo[3,4-d]pyrimidin-4-one]",200 to 1000,–
O=C(c1ccc(F)cc1)N1CCC(O)(C(CO)n2cnc3c(cnn3-c3ccc(F)cc3)c2=O)CC1 (stereo not shown) [Compound I-720],–,1000 to 10000
CN(C(=O)c1ccc(C(=O)N2CCC(O)(Cn3cnc4c(cnn4C)c3=O)CC2)cc1)c1ccccc1 [Compound I-108],1000 to 10000,–
Cc1ncc(C(=O)N2CCC(O)(Cn3cnc4c(ccn4-c4ccc(F)cc4)c3=O)CC2)o1 [Compound I-1077],–,200 to 1000
CN(C)CCOc1ccc(-c2ccc(-n3ncc4c(=O)n(CC5(O)CCN(C(=O)C6CC6)CC5)cnc43)cc2)cc1 [Compound I-369],1000 to 10000,–
CC1(C(=O)N2CCC(O)(Cn3cnc4c(cnn4-c4ccc(N5CC(N6CCOCC6)C5)cc4)c3=O)CC2)CC1 [Compound I-1636],–,200 to 1000
CC1(C(=O)N2CCC(O)(Cn3cnc4c(cnn4-c4ccc(N5CCC(C6COC6)CC5)cc4)c3=O)CC2)CC1 [Compound I-1642],–,200 to 1000
O=C(C1CC1)N1CCC(O)(Cn2cnc3c(cnn3-c3ccc(N4CCC5(CC4)CC5)cc3)c2=O)CC1 [Compound I-1755],–,1000 to 10000
"CN(C(=O)N1CCC(O)(Cn2cnc3c(cnn3C)c2=O)CC1)c1ccc(-c2ccccc2)cc1 [Compound I-4, N-([1,1′-biphenyl]-4-yl)-4-hydroxy-N-methyl-4-((1-methyl-4-oxo-1,4-dihydro-5H-pyrazolo[3,4-d]pyrimidin-5-yl)methyl)piperidine-1-carboxamide]",> 10000,–
Cn1ncc2c(=O)n(CC3(O)CCN(C(=O)c4ccc(NS(=O)(=O)c5ccccc5)cc4)CC3)cnc21 [Compound I-111],1000 to 10000,–
CC1(COc2ccc(-n3ncc4c(=O)n(CC5(O)CCN(C(=O)c6ccc(F)cc6)CC5)cnc43)cc2)COC1 [Compound I-1756],–,200 to 1000
N#CC1CCN(Cc2cccc(-n3ncc4c(=O)n(CC5(O)CCN(C(=O)C6CC6)CC5)cnc43)c2)CC1 [Compound I-446],1000 to 10000,–
C[C@H](CC(=O)N1CCC(O)(Cn2cnc3c(cnn3-c3ccc(F)cc3)c2=O)CC1)n1ncc2c1CCC2 [Compound I-522],> 10000,–
O=C(Nc1ccc(-n2ncc3c(=O)n(CC4(O)CCN(C(=O)C5CC5)CC4)cnc32)cc1)N1CCCC1 [Compound I-1499],1000 to 10000,–
Cc1ccc(C(=O)N2CCC(O)(Cn3cnc4c(cnn4-c4ccc(Cl)cc4)c3=O)CC2)cc1F [Compound I-1523],1000 to 10000,–
"C[C@@H](CC(=O)N1CCC(O)(Cn2cnc3c(cnn3-c3ccc(F)cc3)c2=O)CC1)n1cc2c(n1)CCC2 (single isomer, unassigned) [Compound I-519]",> 10000,–

Compound,IC50 [1] [nM],IC50 [2] [nM]
CN(C)C(=O)N1CCC(O)(Cn2cnc3c(cnn3-c3ccc(F)c(-c4ccc(F)cc4)c3)c2=O)CC1 [Compound I-475],1000 to 10000,–
CN[C@H]1CCN(c2ccc(-c3ccc(-n4ncc5c(=O)n(CC6(O)CCN(C(=O)C7CC7)CC6)cnc54)cc3)cc2)C1 [Compound I-689],–,< 200
CC1(C(=O)N2CCC(O)(Cn3cnc4c(cnn4-c4ccc(F)cc4)c3=O)CC2)CCC1 [Compound I-464],200 to 1000,–
O=C(C1CCc2cn[nH]c2C1)N1CCC(O)(Cn2cnc3c(cnn3-c3ccc(F)cc3)c2=O)CC1 (stereo not shown) [Compound I-724],–,200 to 1000
O=C(c1ccc2c(Cl)ccnc2c1)N1CCC(O)(Cn2cnc3c(cnn3-c3ccccc3)c2=O)CC1 [Compound I-282],1000 to 10000,–
O=C(c1ccc2c(c1)CCO2)N1CCC(O)(Cn2cnc3c(cnn3-c3ccc(Cl)cc3)c2=O)CC1 [Compound I-1521],1000 to 10000,–
CS(=O)(=O)Nc1ccc(C(=O)N2CCC(O)(Cn3cnc4c(cnn4-c4ccccc4)c3=O)CC2)cc1 [Compound I-164],200 to 1000,–
Cc1ccc(-n2ncc3c(=O)n(CC4(O)CCN(C(=O)C[C@@H](c5ccccc5)C(F)(F)F)CC4)cnc32)cc1 [Compound I-145],< 200,–
O=C(C1CCC(n2cccn2)CC1)N1CCC(O)(Cn2cnc3c(cnn3-c3ccc(F)cc3)c2=O)CC1 (stereo not shown) [Compound I-549],–,1000 to 10000
O=C(C1CC1)N1CCC(O)(Cn2cnc3c(cnn3-c3ccc(NS(=O)(=O)c4ccc(Cl)cc4)cc3)c2=O)CC1 [Compound I-1422],1000 to 10000,–
CN1CCC2(CC1)CCN(c1ccc(-n3ncc4c(=O)n(CC5(O)CCN(C(=O)c6ccc(F)cc6)CC5)cnc43)cc1)CC2 [Compound I-1621],–,< 200
O=C(C1CC1)N1CCC(O)(Cn2cnc3c(cnn3-c3ccc(-n4cc(N5CCOCC5)cn4)cc3)c2=O)CC1 [Compound I-819],–,200 to 1000
C=CC(=O)N1CCC1C(=O)N1CCC(O)(Cn2cnc3c(cnn3-c3ccc(-c4ccccc4)cc3)c2=O)CC1 (stereo not shown) [Compound I-657],200 to 1000,–
C=CC(=O)N1CC[C@@H]1C(=O)N1CCC(O)(Cn2cnc3c(cnn3-c3ccc(F)cc3)c2=O)CC1 [Compound I-574],200 to 1000,–
O=C(C1CC1)N1CCC(O)(Cn2cnc3c(cnn3-c3cccc(NS(=O)(=O)c4cccc(Cl)c4)c3)c2=O)CC1 [Compound I-1406],1000 to 10000,–
Cc1cccc(C(=O)N2CCC(O)(Cn3cnc4c(cnn4-c4ccccc4)c3=O)CC2)c1F [Compound I-206],1000 to 10000,–
O=C(c1ccc(F)cc1)N1CCC(O)(Cn2cnc3c(cnn3-c3ccc(OCC4(F)CCC4)cc3)c2=O)CC1 [Compound I-696],–,200 to 1000
O=C(C1CC1)N1CCC(O)(Cn2cnc3c(cnn3-c3ccc(N4CCCC4)cc3)c2=O)CC1 [Compound I-1199],1000 to 10000,–
O=C(C[C@H](c1ccccc1)C(F)(F)F)N1CCC(O)(Cn2cnc3c(cnn3-c3ccccc3)c2=O)CC1 [Compound I-141],1000 to 10000,–
O=C(c1ccc(F)cc1)N1CCC(O)(Cn2cnc3c(cnn3-c3ccc(-n4cc(CO)cn4)cc3)c2=O)CC1 [Compound I-1734],–,200 to 1000
CC1(C(=O)N2CCC(O)(Cn3cnc4c(cnn4-c4ccc(N5CCC6(CC5)CC(F)(F)C6)cc4)c3=O)CC2)CC1 [Compound I-490],–,200 to 1000

Compound,IC50 [1] [nM],IC50 [2] [nM]
Cc1cc(C)cc(C(=O)N2CCC(O)(Cn3cnc4c(cnn4-c4ccccc4)c3=O)CC2)c1 [Compound I-197],1000 to 10000,–
O=C(C1CC1)N1CCC(O)(Cn2cnc3c(cnn3-c3cccc(NCc4cccnc4)c3)c2=O)CC1 [Compound I-1158],1000 to 10000,–
Nc1ccc(-n2ncc3c(=O)n(CC4(O)CCN(C(=O)C5CC5)CC4)cnc32)cc1 [Compound I-965],1000 to 10000,–
O=C(N[C@@H]1CNCC1F)N1CCC(O)(Cn2cnc3c(cnn3-c3ccc(-c4ccccc4)cc3)c2=O)CC1 (stereo partly shown) [Compound I-663],> 10000,–
CN1CCCC(CNc2cccc(-n3ncc4c(=O)n(CC5(O)CCN(C(=O)C6CC6)CC5)cnc43)c2)C1 (stereo not shown) [Compound I-1197],200 to 1000,–
Cc1oncc1S(=O)(=O)Nc1cccc(-n2ncc3c(=O)n(CC4(O)CCN(C(=O)C5CC5)CC4)cnc32)c1 [Compound I-1400],1000 to 10000,–
CC1(C(=O)N2CCC(O)(Cn3cnc4c(cnn4-c4ccc(OCC5(F)CCC5)cc4)c3=O)CC2)CC1 [Compound I-1119],–,< 200
C[C@H](CC(=O)N1CCC(O)(Cn2cnc3c(cnn3-c3ccc(F)cc3)c2=O)CC1)n1ccc(F)n1 [Compound I-1028],–,< 200
O=C(C1CC(Nc2ccc(F)cn2)C1)N1CCC(O)(Cn2cnc3c(cnn3-c3ccc(F)cc3)c2=O)CC1 (stereo not shown) [Compound I-1032],–,200 to 1000
COCCOc1ccc(-n2ncc3c(=O)n(CC4(O)CCN(C(=O)c5ccc(F)cc5)CC4)cnc32)cc1 [Compound I-1363],1000 to 10000,–
C[C@@]1(O)CCN(c2cc(-n3ncc4c(=O)n(CC5(O)CCN(C(=O)C6CC6)CC5)cnc43)ccc2F)C1 [Compound I-638],200 to 1000,–
C[C@]1(O)CCN(c2cc(-n3ncc4c(=O)n(CC5(O)CCN(C(=O)C6CC6)CC5)cnc43)ccc2F)C1 [Compound I-637],200 to 1000,–
O=C(C1CC1)N1CCC(O)(Cn2cnc3c(cnn3-c3ccc(-c4ccccn4)cc3)c2=O)CC1 [Compound I-1214],1000 to 10000,–
O=C(c1cccn1Cc1cccc(F)c1)N1CCC(O)(Cn2cnc3c(cnn3-c3ccc(F)cc3)c2=O)CC1 [Compound I-560],–,200 to 1000
C[C@H]1CN(c2ccc(-n3ncc4c(=O)n(CC5(O)CCN(C(=O)C6(C)CC6)CC5)cnc43)cc2)CCN1C [Compound I-1639],–,< 200
O=C(c1ccc(Cl)cc1)N1CCC(O)(Cn2cnc3c(cnn3-c3ccccc3)c2=O)CC1 [Compound I-280],1000 to 10000,–
O=C(c1cnc(NC2CC2)o1)N1CCC(O)(Cn2cnc3c(cnn3-c3ccc(Cl)cc3)c2=O)CC1 [Compound I-771],–,200 to 1000
O=C(C1CC1)N1CCC(O)(Cn2cnc3c(cnn3-c3ccc(-c4cccc(F)c4)cc3)c2=O)CC1 [Compound I-330],1000 to 10000,–
O=C(c1cnc(Oc2ccccn2)o1)N1CCC(O)(Cn2cnc3c(cnn3-c3ccc(Cl)cc3)c2=O)CC1 [Compound I-1086],–,1000 to 10000
